Measured values reported in ChEMBL document CHEMBL3132769, “Fragment growing to retain or alter the selectivity of anchored kinase hinge-binding fragments” (Medchemcomm, 2014).

Experiments:
[1] = biological target: Proto-oncogene tyrosine-protein kinase Src (Homo sapiens) (UniProt P12931); assay: Inhibition of human full length SRC expressed in baculovirus assessed as substrate phosphorylation using fluorescence-labelled peptides as substrate at 0.2 uM after 90 mins by microfluidic peptide phosphorylation assay
Proto-oncogene tyrosine-protein kinase Src (Homo sapiens), sequence (P12931 2-536 limits assumed): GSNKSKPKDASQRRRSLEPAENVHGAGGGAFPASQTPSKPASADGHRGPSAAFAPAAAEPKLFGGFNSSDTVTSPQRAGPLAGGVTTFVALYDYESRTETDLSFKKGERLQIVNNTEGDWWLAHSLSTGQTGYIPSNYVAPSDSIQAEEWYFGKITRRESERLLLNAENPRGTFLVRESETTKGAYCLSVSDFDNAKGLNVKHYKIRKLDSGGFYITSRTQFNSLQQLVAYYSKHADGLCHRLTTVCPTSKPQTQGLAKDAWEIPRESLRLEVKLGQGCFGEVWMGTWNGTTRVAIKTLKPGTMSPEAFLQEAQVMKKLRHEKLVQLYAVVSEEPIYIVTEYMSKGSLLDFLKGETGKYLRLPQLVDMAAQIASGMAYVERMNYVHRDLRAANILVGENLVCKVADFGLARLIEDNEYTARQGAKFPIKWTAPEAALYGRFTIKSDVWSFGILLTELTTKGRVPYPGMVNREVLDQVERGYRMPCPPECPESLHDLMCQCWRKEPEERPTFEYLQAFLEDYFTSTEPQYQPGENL

[2] = biological target: Insulin receptor (Homo sapiens) (UniProt P06213); assay: Inhibition of human INSR catalytic domain expressed in baculovirus assessed as substrate phosphorylation using fluorescence-labelled peptides as substrate at 420 uM after 90 mins by microfluidic peptide phosphorylation assay
[3] = biological target: T1, Serine/threonine-protein kinase D1 (Homo sapiens) (UniProt Q15139); assay: Inhibition of human full length PKD1 expressed in baculovirus assessed as substrate phosphorylation using fluorescence-labelled peptides as substrate at 2 uM after 90 mins by microfluidic peptide phosphorylation assay
T1 sequence (whole entry): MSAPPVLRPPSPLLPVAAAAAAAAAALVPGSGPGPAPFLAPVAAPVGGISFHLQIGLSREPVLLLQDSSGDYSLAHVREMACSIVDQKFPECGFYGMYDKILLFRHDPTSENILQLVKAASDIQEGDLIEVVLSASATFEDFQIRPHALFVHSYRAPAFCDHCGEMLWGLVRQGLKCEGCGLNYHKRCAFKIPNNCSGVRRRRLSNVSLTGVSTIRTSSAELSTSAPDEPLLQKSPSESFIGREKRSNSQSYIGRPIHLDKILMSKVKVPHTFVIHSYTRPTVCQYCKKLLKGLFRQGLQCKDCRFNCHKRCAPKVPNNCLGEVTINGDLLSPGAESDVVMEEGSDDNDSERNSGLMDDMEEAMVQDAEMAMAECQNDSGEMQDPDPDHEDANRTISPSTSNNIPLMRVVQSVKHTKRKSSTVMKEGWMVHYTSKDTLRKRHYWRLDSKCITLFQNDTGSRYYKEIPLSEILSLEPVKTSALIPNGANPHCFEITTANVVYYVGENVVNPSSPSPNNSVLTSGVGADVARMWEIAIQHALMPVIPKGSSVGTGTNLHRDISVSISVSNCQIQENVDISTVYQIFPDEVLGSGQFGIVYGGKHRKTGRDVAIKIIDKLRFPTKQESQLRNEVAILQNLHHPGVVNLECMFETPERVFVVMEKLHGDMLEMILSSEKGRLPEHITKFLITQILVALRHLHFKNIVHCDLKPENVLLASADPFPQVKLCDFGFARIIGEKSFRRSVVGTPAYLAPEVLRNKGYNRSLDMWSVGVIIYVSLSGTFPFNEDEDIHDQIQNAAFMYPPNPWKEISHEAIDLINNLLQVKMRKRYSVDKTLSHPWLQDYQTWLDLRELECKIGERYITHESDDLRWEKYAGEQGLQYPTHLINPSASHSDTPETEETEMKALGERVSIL

[4] = biological target: T2, Serine/threonine-protein kinase Sgk3 (Homo sapiens) (UniProt Q96BR1); assay: Inhibition of human full length SGK3 expressed in baculovirus assessed as substrate phosphorylation using fluorescence-labelled peptides as substrate at 0.06 uM after 90 mins by microfluidic peptide phosphorylation assay
T2 sequence (whole entry): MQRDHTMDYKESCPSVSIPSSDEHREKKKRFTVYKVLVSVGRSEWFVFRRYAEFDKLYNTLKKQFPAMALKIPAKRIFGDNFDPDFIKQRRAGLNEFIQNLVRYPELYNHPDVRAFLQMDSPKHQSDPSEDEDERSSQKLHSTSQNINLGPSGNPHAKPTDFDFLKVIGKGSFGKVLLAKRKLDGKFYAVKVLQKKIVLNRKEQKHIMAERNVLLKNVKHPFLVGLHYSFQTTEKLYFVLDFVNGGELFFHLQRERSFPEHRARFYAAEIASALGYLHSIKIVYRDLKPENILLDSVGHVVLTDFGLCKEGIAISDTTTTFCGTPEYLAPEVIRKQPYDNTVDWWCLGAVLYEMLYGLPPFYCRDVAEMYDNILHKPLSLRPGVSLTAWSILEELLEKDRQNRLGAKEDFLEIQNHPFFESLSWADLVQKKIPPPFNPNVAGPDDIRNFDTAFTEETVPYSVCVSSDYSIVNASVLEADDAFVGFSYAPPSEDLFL

[5] = test system: T3, Receptor-type tyrosine-protein kinase FLT3 (Homo sapiens), P36888 [D835Y]; assay: Inhibition of human FLT3 D835Y mutant catalytic domain expressed in baculovirus assessed as substrate phosphorylation using fluorescence-labelled peptides as substrate at 0.06 uM after 90 mins by microfluidic peptide phosphorylation assay
T3 sequence (whole entry): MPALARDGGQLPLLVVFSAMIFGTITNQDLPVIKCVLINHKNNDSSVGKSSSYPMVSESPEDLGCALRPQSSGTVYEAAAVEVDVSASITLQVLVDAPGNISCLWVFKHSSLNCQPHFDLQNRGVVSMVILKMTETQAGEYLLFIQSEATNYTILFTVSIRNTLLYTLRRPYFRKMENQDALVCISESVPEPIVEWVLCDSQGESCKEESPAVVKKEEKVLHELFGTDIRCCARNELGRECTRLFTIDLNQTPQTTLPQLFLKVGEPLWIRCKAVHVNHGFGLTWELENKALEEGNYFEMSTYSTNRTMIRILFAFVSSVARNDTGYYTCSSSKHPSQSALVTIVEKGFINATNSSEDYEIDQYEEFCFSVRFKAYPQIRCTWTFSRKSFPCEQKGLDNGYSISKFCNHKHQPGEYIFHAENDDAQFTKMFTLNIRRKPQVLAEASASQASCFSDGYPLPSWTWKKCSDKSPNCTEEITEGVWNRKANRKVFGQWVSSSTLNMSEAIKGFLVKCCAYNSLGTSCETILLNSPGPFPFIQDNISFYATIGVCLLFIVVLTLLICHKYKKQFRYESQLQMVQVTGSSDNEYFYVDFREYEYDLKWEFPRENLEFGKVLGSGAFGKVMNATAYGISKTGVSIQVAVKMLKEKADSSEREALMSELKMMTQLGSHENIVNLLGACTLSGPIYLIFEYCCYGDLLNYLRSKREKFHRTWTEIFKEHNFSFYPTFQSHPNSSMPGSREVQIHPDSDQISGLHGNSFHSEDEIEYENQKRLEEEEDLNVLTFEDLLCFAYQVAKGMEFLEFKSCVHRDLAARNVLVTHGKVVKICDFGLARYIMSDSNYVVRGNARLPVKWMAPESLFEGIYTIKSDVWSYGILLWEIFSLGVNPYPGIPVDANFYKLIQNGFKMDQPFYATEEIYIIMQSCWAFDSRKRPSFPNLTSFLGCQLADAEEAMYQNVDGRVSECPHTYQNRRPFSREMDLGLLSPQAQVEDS

[6] = biological target: Tyrosine-protein kinase Lck (Homo sapiens) (UniProt P06239); assay: Inhibition of human full length LCK expressed in baculovirus assessed as substrate phosphorylation using fluorescence-labelled peptides as substrate at 0.06 uM after 90 mins by microfluidic peptide phosphorylation assay
Tyrosine-protein kinase Lck (Homo sapiens), sequence (P06239 2-509 limits assumed): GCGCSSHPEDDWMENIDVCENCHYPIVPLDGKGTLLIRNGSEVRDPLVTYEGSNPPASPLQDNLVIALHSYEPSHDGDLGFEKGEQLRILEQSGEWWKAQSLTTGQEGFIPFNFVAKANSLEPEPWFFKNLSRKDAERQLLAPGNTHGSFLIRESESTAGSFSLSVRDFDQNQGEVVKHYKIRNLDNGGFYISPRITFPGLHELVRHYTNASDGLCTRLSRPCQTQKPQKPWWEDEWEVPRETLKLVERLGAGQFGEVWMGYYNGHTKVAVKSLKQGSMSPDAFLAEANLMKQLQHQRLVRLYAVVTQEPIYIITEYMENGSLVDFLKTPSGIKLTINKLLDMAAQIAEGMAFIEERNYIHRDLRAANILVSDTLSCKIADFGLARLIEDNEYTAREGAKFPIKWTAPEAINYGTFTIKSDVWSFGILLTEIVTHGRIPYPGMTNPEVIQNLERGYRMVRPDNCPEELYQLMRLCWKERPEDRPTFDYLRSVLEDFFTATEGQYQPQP

[7] = biological target: MAP/microtubule affinity-regulating kinase 3 (Homo sapiens) (UniProt P27448); assay: Inhibition of human full length c-TAK1 expressed in Escherichia coli cell assessed as substrate phosphorylation using fluorescence-labelled peptides as substrate at 1000 uM after 90 mins by microfluidic peptide phosphorylation assay
MAP/microtubule affinity-regulating kinase 3 (Homo sapiens), sequence (P27448 whole entry, looked up): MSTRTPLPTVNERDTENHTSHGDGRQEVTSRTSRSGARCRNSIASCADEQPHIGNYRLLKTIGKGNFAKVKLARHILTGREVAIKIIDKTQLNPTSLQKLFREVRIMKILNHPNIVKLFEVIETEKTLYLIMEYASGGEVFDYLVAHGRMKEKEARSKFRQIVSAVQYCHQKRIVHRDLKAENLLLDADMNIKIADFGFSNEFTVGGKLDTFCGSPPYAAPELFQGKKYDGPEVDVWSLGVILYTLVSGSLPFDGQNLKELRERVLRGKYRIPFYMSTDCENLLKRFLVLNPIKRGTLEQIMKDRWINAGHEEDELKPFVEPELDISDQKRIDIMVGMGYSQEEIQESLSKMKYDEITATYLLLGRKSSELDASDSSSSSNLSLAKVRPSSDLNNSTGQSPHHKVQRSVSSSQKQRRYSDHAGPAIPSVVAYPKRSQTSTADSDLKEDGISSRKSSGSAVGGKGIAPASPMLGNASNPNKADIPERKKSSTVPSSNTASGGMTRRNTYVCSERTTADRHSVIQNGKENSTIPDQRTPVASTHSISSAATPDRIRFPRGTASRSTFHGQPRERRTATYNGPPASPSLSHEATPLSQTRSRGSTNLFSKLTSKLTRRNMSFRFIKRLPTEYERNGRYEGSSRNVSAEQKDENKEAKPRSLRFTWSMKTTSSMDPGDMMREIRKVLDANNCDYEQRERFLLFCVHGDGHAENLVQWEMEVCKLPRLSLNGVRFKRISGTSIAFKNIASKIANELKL

Q: Which inhibition [1] does the source give for `Clc1ccc(C2(c3ccc(-c4ncnc5[nH]cnc45)cc3)CCNCC2)cc1` here?
A: 24.5%

Q: How did the inhibition [2] turn out when `c1nc(N2CCOCC2)c2nc[nH]c2n1` was run?
A: 8%

Q: How did the inhibition [3] turn out when `NC1CCN(c2ncnc3[nH]ccc23)CC1` was run?
A: 26%

Q: Which inhibition [4] does the source give for `NC1(Cc2ccc(Cl)cc2)CCN(c2ncnc3[nH]ccc23)CC1` here?
A: 42.5%

Q: And the inhibition [5]?
A: 0%

Q: And the inhibition [6]?
A: 0%

Q: With `c1cnc2[nH]ccc2c1` as the compound, how does the inhibition [7] read?
A: 77%
